pIC50: −log10 of the molar value. Like-named read-outs stand apart in the source and are kept apart here.
Assays:
[1] = biological target: T1, nuclear factor-kappa B (NF-kB)-inducing kinase (NIK) (Homo sapiens, UniProt Q99558); assay: NIK enzyme inhibition assay (Transcreener ADP fluorescence polarization, NIK ADP-FP); format: biochemical
T1 construct: made in house; host or cells: baculovirus-infected insect cells

[2] = tested on: REL-A (p65) nuclear translocation in HeLa cells; assay: REL-A (p65) nuclear translocation assay in HeLa cells, TNF-α stimulated (classical NF-kB signaling), high content imaging; format: cell-based; conditions: compound 4.5 h, then 10 ng/mL TNF-α for 30 minutes, read-out: REL-A HeLa Transloc Assay (IC50)
Procedure: (§1) Several assays were developed to profile the cellular activities of NIK inhibitors.
(§2) (2) A second set of cell assay are used to define the selectivity of NIK inhibitors toward inhibition of classical vs. non-classical NF-kB signaling and rely on quantification of the nuclear translocation of p52 (NF-kB2) and REL-A (p65) using high content cellular imaging. For the p52 (non-classical NF-kB signaling) nuclear translocation assay, HeLa cells are treated with different concentrations of compounds (0.2% DMSO final) in medium containing 10% fetal bovine serum and then stimulated with 100 ng/mL of an anti-lymphotoxin beta receptor antibody (R&D Systems) for 5 hours. In the REL-A nuclear translocation assay, HeLa cells are incubated with compounds (0.2% DMSO final) for 4.5 hours in medium containing 10% fetal bovine serum before stimulating them with 10 ng/mL tumor necrosis factor (TNF)-α (R&D Systems) for 30 minutes. Cells are fixed with 4% paraformaldehyde, permeabilized by adding 0.1% Triton X-100 in phosphate buffered saline, and then are incubated with either 2 ug/mL anti-p52 antibody (Millipore) or 400 ng/mL anti-REL-A (p65) antibody (Santa Cruz Biotechnology). Finally, the cells are incubated with an Alexa488-labeled secondary antibody (Invitrogen) and DRAQ5 DNA stain (Biostatus). Imaging is carried out using an Opera reader (Perkin Elmer) and data are analyzed with the aid of Acapella software (Perkin Elmer). The p52 or REL-Atranslocation into the nucleus is quantified by the ratio of the nuclear to cytoplasmic signal intensity. […] The compounds in listed in Table 1 have the corresponding inhibitory value (IC50 in micromolar) for NIK p52 Translocation Assay as set forth in Table 2.
(§3) The compounds in listed in Table 1 have the corresponding inhibitory values (IC50 in micromolar) for the Translocation Assays as set forth in Table 2.

[3] = tested on: p52 (NF-kB2) nuclear translocation in HeLa cells; assay: p52 (NF-kB2) nuclear translocation assay in HeLa cells, anti-lymphotoxin beta receptor antibody stimulated (non-classical NF-kB signaling), high content imaging; format: cell-based; conditions: 100 ng/mL anti-lymphotoxin beta receptor antibody for 5 hours, read-out: p52 HeLa Transloc Assay (IC50)
Procedure: as §1, §2, §3

T1 sequence (Q99558 whole entry): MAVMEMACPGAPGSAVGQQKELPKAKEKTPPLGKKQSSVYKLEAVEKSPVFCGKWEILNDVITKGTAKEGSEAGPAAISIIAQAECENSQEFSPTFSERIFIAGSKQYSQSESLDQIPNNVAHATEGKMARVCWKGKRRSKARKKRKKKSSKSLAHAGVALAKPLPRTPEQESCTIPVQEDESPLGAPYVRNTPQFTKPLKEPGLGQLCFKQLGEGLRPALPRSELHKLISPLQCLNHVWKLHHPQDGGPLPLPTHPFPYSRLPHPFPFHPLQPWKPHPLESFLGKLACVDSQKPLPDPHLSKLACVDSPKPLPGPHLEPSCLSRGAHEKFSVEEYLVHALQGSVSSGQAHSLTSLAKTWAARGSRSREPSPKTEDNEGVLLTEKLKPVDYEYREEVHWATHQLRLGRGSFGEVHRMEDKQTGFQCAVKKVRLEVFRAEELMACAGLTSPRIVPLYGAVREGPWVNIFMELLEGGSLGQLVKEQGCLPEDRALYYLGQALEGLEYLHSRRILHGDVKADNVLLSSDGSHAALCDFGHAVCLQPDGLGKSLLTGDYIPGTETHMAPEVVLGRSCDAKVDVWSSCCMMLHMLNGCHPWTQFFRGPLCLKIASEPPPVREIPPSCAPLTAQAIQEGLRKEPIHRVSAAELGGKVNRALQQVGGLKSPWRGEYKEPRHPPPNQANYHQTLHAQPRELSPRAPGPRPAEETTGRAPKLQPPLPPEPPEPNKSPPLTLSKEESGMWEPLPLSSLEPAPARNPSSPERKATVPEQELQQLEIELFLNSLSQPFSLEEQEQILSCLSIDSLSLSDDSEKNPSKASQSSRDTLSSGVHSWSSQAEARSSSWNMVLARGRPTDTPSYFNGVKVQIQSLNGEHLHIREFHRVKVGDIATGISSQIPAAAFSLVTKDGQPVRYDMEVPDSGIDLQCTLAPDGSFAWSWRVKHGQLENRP

CN1CC[C@@](O)(C#Cc2cccc(-c3nc(N[C@@H]4CCOC4)cc(C(N)=O)n3)c2)C1=O [Example 31, 2-[3-[2-[(3R)-3-hydroxy-1-methyl-2-oxo-pyrrolidin-3-yl]ethynyl]phenyl]-6-[[(3R)-tetrahydrofuran-3-yl]amino] pyrimidine-4-carboxamide]
Ki [1]: 0.93 nM | pIC50 ([2]; Homo sapiens, HeLa): < 4.70 | pIC50 ([3]; Homo sapiens): 6.32

CN1CC[C@@](O)(C#Cc2cccc(-c3nccc(C(N)=O)n3)c2)C1=O [Example 32, 2-[3-[2-[(3R)-3-hydroxy-1-methyl-2-oxo-pyrrolidin-3-yl]ethynyl]phenyl] pyrimidine-4-carboxamide]
Ki [1]: 0.22 nM | pIC50 ([2]; Homo sapiens, HeLa): < 4.70 | pIC50 ([3]; Homo sapiens): 6.61

CN1CC[C@@](O)(C#Cc2cccc(-c3nc(C(N)=O)cc(-c4ccnn4C)n3)c2)C1=O [Example 33, 2-[3-[2-[(3R)-3-hydroxy-1-methyl-2-oxo-pyrrolidin-3-yl]ethynyl]phenyl]-6-(2-methylpyrazol-3-yl) pyrimidine-4-carboxamide]
Ki [1]: < 0.05 nM | pIC50 ([2]; Homo sapiens, HeLa): < 4.55 | pIC50 ([3]; Homo sapiens): 7.44

CN1CC[C@@](O)(C#Cc2cccc(-c3nc4c(c(C(N)=O)n3)CCCC4)c2)C1=O [Example 34, 2-[3-[2-[(3R)-3-hydroxy-1-methyl-2-oxo-pyrrolidin-3-yl]ethynyl]phenyl]-5,6,7,8-tetrahydroquinazoline-4-carboxamide]
Ki [1]: 1.42 nM | pIC50 ([2]; Homo sapiens, HeLa): < 4.70 | pIC50 ([3]; Homo sapiens): 6.86

CN1CC[C@@](O)(C#Cc2cccc(-c3nc4c(c(C(N)=O)n3)CC(C)(C)CC4)c2)C1=O [Example 35, 2-[3-[2-[(3R)-3-hydroxy-1-methyl-2-oxo-pyrrolidin-3-yl]ethynyl]phenyl]-6,6-dimethyl-7,8-dihydro-5H-quinazoline-4-carboxamide]
Ki [1]: 2.23 nM | pIC50 ([2]; Homo sapiens, HeLa): < 4.70 | pIC50 ([3]; Homo sapiens): 6.41

CN1CC[C@@](O)(C#Cc2cccc(-c3nc(C(N)=O)nc4ccsc34)c2)C1=O [Example 36, 4-[3-[2-[(3R)-3-hydroxy-1-methyl-2-oxo-pyrrolidin-3-yl]ethynyl]phenyl]thieno[3,2-d]pyrimidine-2-carboxamide]
Ki [1]: 0.184 nM | pIC50 ([2]; Homo sapiens, HeLa): < 4.70 | pIC50 ([3]; Homo sapiens): 6.50

CN1CC[C@@](O)(C#Cc2cccc(-c3nc(C(N)=O)c4sccc4n3)c2)C1=O [Example 37, 2-[3-[2-[(3R)-3-hydroxy-1-methyl-2-oxo-pyrrolidin-3-yl]ethynyl]phenyl]thieno[3,2-d]pyrimidine-4-carboxamide]
Ki [1]: 0.12 nM | pIC50 ([2]; Homo sapiens, HeLa): < 4.70 | pIC50 ([3]; Homo sapiens): 7.86

CN1CC[C@@](O)(C#Cc2cccc(-c3nc4c(c(C(N)=O)n3)CCC4)c2)C1=O [Example 38, 2-[3-[2-[(3R)-3-hydroxy-1-methyl-2-oxo-pyrrolidin-3-yl]ethynyl]phenyl]-6,7-dihydro-5H-cyclopenta [d]pyrimidine-4-carboxamide]
Ki [1]: 0.19 nM | pIC50 ([2]; Homo sapiens, HeLa): < 4.70 | pIC50 ([3]; Homo sapiens): 7.31

CN1CC[C@@](O)(C#Cc2cccc(-c3nc(C(N)=O)c4ccn(C)c4n3)c2)C1=O [Example 39, 2-[3-[2-[(3R)-3-hydroxy-1-methyl-2-oxo-pyrrolidin-3-yl]ethynyl]phenyl]-7-methyl-pyrrolo[2,3-d] pyrimidine-4-carboxamide]
Ki [1]: 0.13 nM | pIC50 ([2]; Homo sapiens, HeLa): 5.11 | pIC50 ([3]; Homo sapiens): 7.68

CN1CC[C@@](O)(C#Cc2cccc(-c3nc(C(N)=O)c4cccc(F)c4n3)c2)C1=O [Example 41, 8-fluoro-2-[3-[2-[(3R)-3-hydroxy-1-methyl-2-oxo-pyrrolidin-3-yl]ethynyl]phenyl]quinazoline-4-carboxamide]
Ki [1]: 0.22 nM | pIC50 ([2]; Homo sapiens, HeLa): < 4.70 | pIC50 ([3]; Homo sapiens): 7.58

CN1CC[C@@](O)(C#Cc2cccc(-c3nc(C(N)=O)c4cnn(C)c4n3)c2)C1=O [Example 42, 6-(3-[2-[(3R)-3-hydroxy-1-methyl-2-oxopyrrolidin-3-yl]ethynyl]phenyl)-1-methyl-1H-pyrazolo[3,4-d] pyrimidine-4-carboxamide]
Ki [1]: 0.1 nM | pIC50 ([2]; Homo sapiens, HeLa): < 4.70 | pIC50 ([3]; Homo sapiens): 7.96

CN1CC[C@@](O)(C#Cc2cccc(-c3nc(C(N)=O)c4ccc(F)cc4n3)c2)C1=O [Example 43, 7-fluoro-2-(3-[2-[(3R)-3-hydroxy-1-methyl-2-oxopyrrolidin-3-yl]ethynyl]phenyl)quinazoline-4-carboxamide]
Ki [1]: 0.08 nM | pIC50 ([2]; Homo sapiens, HeLa): < 4.70 | pIC50 ([3]; Homo sapiens): 7.85

COc1ccc2c(C(N)=O)nc(-c3cccc(C#C[C@]4(O)CCN(C)C4=O)c3)nc2c1 [Example 44, 2-(3-[2-[(3R)-3-hydroxy-1-methyl-2-oxopyrrolidin-3-yl]ethynyl]phenyl)-7-methoxyquinazoline-4-carboxamide]
Ki [1]: 0.11 nM | pIC50 ([2]; Homo sapiens, HeLa): < 4.70 | pIC50 ([3]; Homo sapiens): 7.76

CN1CC[C@@](O)(C#Cc2cccc(-c3nc(C(N)=O)cc4c3CCC4)c2)C1=O [Example 46, 1-(3-[2-[(3R)-3-hydroxy-1-methyl-2-oxopyrrolidin-3-yl]ethynyl]phenyl)-5H,6H,7H-cyclopenta[c] pyridine-3-carboxamide]
Ki [1]: 0.62 nM | pIC50 ([2]; Homo sapiens, HeLa): < 4.70 | pIC50 ([3]; Homo sapiens): 6.99

CN1CC[C@@](O)(C#Cc2cccc(-c3nc(C(N)=O)cc4c3ncn4C)c2)C1=O [Example 47, 4-[3-[2-[(3R)-3-hydroxy-1-methyl-2-oxo-pyrrolidin-3-yl]ethynyl]phenyl]-1-methyl-imidazo[4,5-c] pyridine-6-carboxamide]
Ki [1]: 0.94 nM | pIC50 ([2]; Homo sapiens, HeLa): ≤ 4.70 | pIC50 ([3]; Homo sapiens): 6.57

CN1CC[C@@](O)(C#Cc2cccc(-c3nc(C(N)=O)cn4ccnc34)c2)C1=O [Example 48, 8-[3-[2-[(3R)-3-hydroxy-1-methyl-2-oxo-pyrrolidin-3-yl]ethynyl]phenyl] imidazo[1,2-a]pyrazine-6-carboxamide]
Ki ([1]; purified NIK 0.5 nM, 10 μM ATP, pH 7.2, Ki from Morrison's quadratic equation): 0.39 nM | pIC50 [2]: ≤ 4.70 | pIC50 [3]: 6.91

CN1CC[C@@](O)(C#Cc2cccc(-c3cc4cc[nH]c4c(C(N)=O)n3)c2)C1=O [Example 49, 5-[3-[2-[(3R)-3-hydroxy-1-methyl-2-oxo-pyrrolidin-3-yl]ethynyl]phenyl]-1H-pyrrolo [2,3-c]pyridine-7-carboxamide]
Ki [1]: 0.05 nM | pIC50 ([2]; Homo sapiens, HeLa): ≤ 5.70 | pIC50 ([3]; Homo sapiens): 8.09

CN1CC[C@@](O)(C#Cc2cccc(-c3nc(C(N)=O)nc4c3ccn4C)c2)C1=O [Example 50, 4-[3-[2-[(3R)-3-hydroxy-1-methyl-2-oxo-pyrrolidin-3-yl]ethynyl]phenyl]-7-methyl-pyrrolo[2,3-d]pyrimidine-2-carboxamide]
Ki [1]: 1.08 nM | pIC50 ([2]; Homo sapiens, HeLa): ≤ 4.70 | pIC50 ([3]; Homo sapiens): 6.46

CN1CC[C@@](O)(C#Cc2cccc(-c3cc(-n4cncn4)cc(C(N)=O)n3)c2)C1=O [Example 51, 6-[3-[2-[(3R)-3-hydroxy-1-methyl-2-oxo-pyrrolidin-3-yl]ethynyl]phenyl]-4-(1,2,4-triazol-1-yl)pyridine-2-carboxamide]
Ki [1]: 0.23 nM | pIC50 ([2]; Homo sapiens, HeLa): ≤ 4.70 | pIC50 ([3]; Homo sapiens): 6.89

CN1CC[C@@](O)(C#Cc2cccc(-c3cc(-n4cccn4)cc(C(N)=O)n3)c2)C1=O [Example 52, 6-[3-[2-[(3R)-3-hydroxy-1-methyl-2-oxo-pyrrolidin-3-yl]ethynyl]phenyl]-4-pyrazol-1-yl-pyridine-2-carboxamide]
Ki [1]: 0.13 nM | pIC50 ([2]; Homo sapiens, HeLa): ≤ 4.70 | pIC50 ([3]; Homo sapiens): 7.59

CN1CC[C@@](O)(C#Cc2cccc(-c3cc(-c4ccnn4C)nc(C(N)=O)n3)c2)C1=O [Example 53, 4-[3-[2-[(3R)-3-hydroxy-1-methyl-2-oxo-pyrrolidin-3-yl]ethynyl]phenyl]-6-(2-methylpyrazol-3-yl) pyrimidine-2-carboxamide]
Ki [1]: 0.67 nM | pIC50 ([2]; Homo sapiens, HeLa): ≤ 4.70 | pIC50 ([3]; Homo sapiens): 6.14

CN1CC[C@@](O)(C#Cc2cccc(-c3nc(C(N)=O)c(N)cc3F)c2)C1=O [Example 59, 3-amino-5-fluoro-6-[3-[2-[(3R)-3-hydroxy-1-methyl-2-oxo-pyrrolidin-3-yl]ethynyl]phenyl] pyridine-2-carboxamide]
Ki [1]: 0.16 nM | pIC50 ([2]; Homo sapiens, HeLa): 5.20 | pIC50 ([3]; Homo sapiens): 7.63

CN1CC[C@@](O)(C#Cc2cccc(-c3nc(C(N)=O)c(Cl)cc3F)c2)C1=O [Example 60, 3-chloro-5-fluoro-6-[3-[2-[(3R)-3-hydroxy-1-methyl-2-oxo-pyrrolidin-3-yl]ethynyl]phenyl] pyridine-2-carboxamide]
Ki [1]: 5.61 nM | pIC50 ([2]; Homo sapiens, HeLa): ≤ 4.70 | pIC50 ([3]; Homo sapiens): 5.86

CN1CC[C@@](O)(C#Cc2cccc(-c3cnc(N)c(C(N)=O)n3)c2)C1=O [Example 62, 3-amino-6-[3-[2-[(3R)-3-hydroxy-1-methyl-2-oxo-pyrrolidin-3-yl]ethynyl]phenyl] pyrazine-2-carboxamide]
Ki [1]: 0.11 nM | pIC50 ([2]; Homo sapiens, HeLa): 6.00 | pIC50 ([3]; Homo sapiens): 7.94

— patent publication US20160185797A1, “ALKYNYL ALCOHOLS AND METHODS OF USE” (Genentech, Inc., priority 2013, published 2016)
